Values joined by “and” are separate entries in the source; they are usually repeats but may differ in a detail not shown here. Equal entries are not always repeated. Bounds are passed on as bounds.

These results are taken from PubChem BioAssay AID1963447 (Molecular Pharmacology Branch, DTP, NCI, 2024).

The subject of the experiment is 885512-296-R-J2-PDC complex spheroid growth, % test/control. Briefly: Anticancer human tumor 885512-296-R-J2-PDC patient-derived breast carcinoma cell line growth inhibition [Asc]. The note with it: for viability, T/C: stronger effect = lower value. The procedure, abridged: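 Tumor cells were grown as multicellular spheroids with stromal HUVEC and mesenchymal stem cells and treated singly or in combination. Concentrations fell in half-log steps from the clinical Cmax, or from 10 microM where none was known.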

Setting [1] is: curve of first compound, second compound 0.1 µM.
Where [2] appears, read: curve of first compound, second compound 0.316 µM.
[3] abbreviates: curve of first compound, second compound 1 µM.
Setting [4] is: second compound 0.1 µM, first compound 0.0316 µM.
Setting [5] is: second compound 0.1 µM, first compound 0.1 µM.
Where [6] appears, read: second compound 0.1 µM, first compound 0.316 µM.
Where [7] appears, read: second compound 0.1 µM, first compound 1 µM.
Setting [8] is: second compound 0.1 µM, first compound 3.16 µM.
Where [9] appears, read: second compound 0.1 µM, first compound 10 µM.
Setting [10] is: second compound 0.316 µM, first compound 0.0316 µM.
The mark [11] stands for this setting: second compound 0.316 µM, first compound 0.1 µM.
[12] abbreviates: second compound 0.316 µM, first compound 0.316 µM.
[13] abbreviates: second compound 0.316 µM, first compound 1 µM.
Setting [14] is: second compound 0.316 µM, first compound 3.16 µM.
[15] abbreviates: second compound 0.316 µM, first compound 10 µM.
[16] abbreviates: second compound 1 µM, first compound 0.0316 µM.
Setting [17] is: second compound 1 µM, first compound 0.1 µM.
Setting [18] is: second compound 1 µM, first compound 0.316 µM.
Where [19] appears, read: second compound 1 µM, first compound 1 µM.
Where [20] appears, read: second compound 1 µM, first compound 3.16 µM.
Where [21] appears, read: second compound 1 µM, first compound 10 µM.
The mark [22] stands for this setting: curve of first compound, second compound 3.16 µM.
The mark [23] stands for this setting: curve of first compound, second compound 10 µM.
[24] abbreviates: second compound 3.16 µM, first compound 0.0316 µM.
Setting [25] is: second compound 3.16 µM, first compound 0.1 µM.
[26] abbreviates: second compound 3.16 µM, first compound 0.316 µM.
Setting [27] is: second compound 3.16 µM, first compound 1 µM.
[28] abbreviates: second compound 10 µM, first compound 0.0316 µM.
The mark [29] stands for this setting: second compound 10 µM, first compound 0.1 µM.
Setting [30] is: second compound 10 µM, first compound 0.316 µM.
The mark [31] stands for this setting: second compound 10 µM, first compound 1 µM.
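Also: spheroids exposed to compounds for seven days.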
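For viability, T/C in this document: 100% = DMSO vehicle control wells.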

On to `O=C(c1cc(Cc2n[nH]c(=O)c3ccccc23)ccc1F)N1CCN(C(=O)C2CC2)CC1` + CNC(C)C(=O)NC1CN(S(=O)(=O)c2cccc(S(=O)(=O)N3CCC4CCC(C(=O)NC(c5ccccc5)c5ccccc5)N4C(=O)C(NC(=O)C(C)NC)C3)c2)CCC2CCC(C(=O)NC(c3ccccc3)c3ccccc3)N2C1=O, for which the half-maximal inhibitory concentration (IC50) runs as follows: (curve of first compound, second compound 0.01 µM) 4.11 µM; (curve of first compound, second compound 0.0316 µM) 2.96 µM; under setting [1], 3.93 µM; under setting [2], 3.85 µM; under setting [3], 3.63 µM. Also, the viability, T/C by setting is: (second compound 0.01 µM, first compound 0.0316 µM) 95.6%; (second compound 0.01 µM, first compound 0.1 µM) 96.4%; (second compound 0.01 µM, first compound 0.316 µM) 95.6%; (second compound 0.01 µM, first compound 1 µM) 94.5%; (second compound 0.01 µM, first compound 3.16 µM) 60.7%; (second compound 0.01 µM, first compound 10 µM) 13.5%. Also, the viability, T/C reads like this: (second compound 0.0316 µM, first compound 0.0316 µM) 97.1%; (second compound 0.0316 µM, first compound 0.1 µM) 101%; (second compound 0.0316 µM, first compound 0.316 µM) 99.6%; (second compound 0.0316 µM, first compound 1 µM) 84%; (second compound 0.0316 µM, first compound 3.16 µM) 48.2%; (second compound 0.0316 µM, first compound 10 µM) 14.4%. Further, the viability, T/C under setting [4] is 97.9%; the viability, T/C under setting [5] was 98.2%; the viability, T/C under setting [6] was 106%; the viability, T/C under setting [7] was 86.2%; the viability, T/C under setting [8] is 59.8%; the viability, T/C under setting [9] is 10.6%. The viability, T/C runs as follows: under setting [10], 101%; under setting [11], 106%; under setting [12], 102%; under setting [13], 89.3%; under setting [14], 58.1%; under setting [15], 12%. The viability, T/C reads like this: under setting [16], 96.1%; under setting [17], 97.8%; under setting [18], 95.4%; under setting [19], 87.2%; under setting [20], 55%; under setting [21], 13.1%.

With `NC1CCC(NC2CC2c2ccccc2)CC1` (centres undefined), the viability, T/C was 128% and 119% and 118% (compound 0.000316 µM); 129% and 116% and 126% (compound 0.001 µM); 118% and 117% and 122% (compound 0.00316 µM); 127% and 125% and 122% (compound 0.01 µM); 130% and 120% and 127% (compound 0.0316 µM); 122% and 110% and 125% (compound 0.1 µM). The IC50 (curve of compound) is greater than 0.1 µM.

`O=C(c1ccc(F)c(F)c1Nc1ccc(I)cc1F)N1CC(O)([C@@H]2CCCCN2)C1` + Cc1c(S(C)(=O)=O)c(-c2cc(F)cc(N3CCN(c4ccc(NS(=O)(=O)c5ccc(NC(CCN6CCC(C(=O)OCCCP(=O)(O)O)CC6)CSc6ccccc6)c(S(=O)(=O)C(F)(F)F)c5)cc4)CC3)c2)c(-c2ccc(Cl)cc2)n1C(C)C: the IC50 came out at 0.121 µM under setting [1]; 0.0941 µM under setting [2]; 0.089 µM under setting [3]; 0.0779 µM under setting [22]; 0.452 µM under setting [23]. Further, the viability, T/C reads like this: (second compound 0.1 µM, first compound 0.00316 µM) 77.6%; (second compound 0.1 µM, first compound 0.01 µM) 82.5%; under setting [4], 69.9%; under setting [5], 50.8%; under setting [6], 34%; under setting [7], 13.1%. The viability, T/C was 94% (second compound 0.316 µM, first compound 0.00316 µM); 88.8% (second compound 0.316 µM, first compound 0.01 µM); 63.6% under setting [10]; 51.9% under setting [11]; 28.7% under setting [12]; 13.7% under setting [13]. Besides, the viability, T/C runs as follows: (second compound 1 µM, first compound 0.00316 µM) 86.9%; (second compound 1 µM, first compound 0.01 µM) 68.7%; under setting [16], 68.1%; under setting [17], 48.4%; under setting [18], 30.2%; under setting [19], 12.2%. Moreover, the viability, T/C runs as follows: (second compound 3.16 µM, first compound 0.00316 µM) 102%; (second compound 3.16 µM, first compound 0.01 µM) 86.8%; under setting [24], 55.1%; under setting [25], 51.5%; under setting [26], 30.4%; under setting [27], 11.2%. The viability, T/C runs as follows: (second compound 10 µM, first compound 0.00316 µM) 111%; (second compound 10 µM, first compound 0.01 µM) 109%; under setting [28], 99.2%; under setting [29], 96.1%; under setting [30], 64.2%; under setting [31], 16.4%.

Take `C#Cc1c(F)ccc2cc(O)cc(-c3ncc4c(N5CC6CCC(C5)N6)nc(OCC56CCCN5CC(F)C6)nc4c3F)c12` (centres undefined) + Cc1c(S(C)(=O)=O)c(-c2cc(F)cc(N3CCN(c4ccc(NS(=O)(=O)c5ccc(NC(CCN6CCC(C(=O)OCCCP(=O)(O)O)CC6)CSc6ccccc6)c(S(=O)(=O)C(F)(F)F)c5)cc4)CC3)c2)c(-c2ccc(Cl)cc2)n1C(C)C: the IC50 is greater than 10 µM under setting [1]; greater than 10 µM under setting [2]; greater than 10 µM under setting [3]; greater than 10 µM under setting [22]; greater than 10 µM under setting [23]. The viability, T/C by setting is: under setting [4], 96.9%; under setting [5], 78.9%; under setting [6], 85.1%; under setting [7], 77.4%; under setting [8], 74.1%; under setting [9], 70.9%. Further, the viability, T/C runs as follows: under setting [10], 96.8%; under setting [11], 105%; under setting [12], 90.9%; under setting [13], 72.4%; under setting [14], 95.4%; under setting [15], 71%. The viability, T/C reads like this: under setting [16], 88.3%; under setting [17], 82.9%; under setting [18], 93%; under setting [19], 66.6%; under setting [20], 86%; under setting [21], 66.9%. Moreover, the viability, T/C under setting [24] was 88.3%; the viability, T/C under setting [25] is 112%; the viability, T/C under setting [26] was 82.7%; the viability, T/C under setting [27] was 76.5%; the viability, T/C (second compound 3.16 µM, first compound 3.16 µM) was 79.8%; the viability, T/C (second compound 3.16 µM, first compound 10 µM) was 76.4%. The viability, T/C by setting is: under setting [28], 115%; under setting [29], 112%; under setting [30], 101%; under setting [31], 117%; (second compound 10 µM, first compound 3.16 µM) 103%; (second compound 10 µM, first compound 10 µM) 51.4%.

Regarding `C=CC(=O)N1CCN(c2nc(=O)n(-c3c(C)ccnc3C(C)C)c3nc(-c4c(O)cccc4F)c(F)cc23)C(C)C1` (centres undefined), the viability, T/C is 90.3% and 85.9% and 94.9% (compound 0.0316 µM); 104% and 108% and 86.1% (compound 0.1 µM); 108% and 104% and 90.2% (compound 0.316 µM); 108% and 124% and 103% (compound 1 µM); 77.3% and 101% and 95.2% (compound 3.16 µM); 60.6% and 59.6% and 78.4% (compound 10 µM). The IC50 (curve of compound) is greater than 10 µM.
